# According to patent US9205077B2, “2-alkoxy-substituted dicyanopyridines and their use” (Bayer Intellectual Property GmbH, priority 2008, dated 2015):
# What was measured:
# Type in all cases: cell-based
# adenosine A2a receptor = biological target: T1, adenosine A2a receptor (Homo sapiens, UniProt P29274); test: Indirect determination of the adenosine agonism by way of gene expression (luciferase reporter), A2a cells; conditions: CHO cells stably transfected with A2a receptor cDNA; 50% of maximum stimulation of luciferase
# T1 construct: expressed in transfected cells; host or cells: CHO (Chinese Hamster Ovary) permanent line, stably transfected
# From the text: (§1) B-1. Indirect Determination of the Adenosine Agonism by Way of Gene Expression
# (§2) Cells of the CHO (Chinese Hamster Ovary) permanent line are transfected stably with the cDNA for the adenosine receptor subtypes A1, A2a and A2b. The adenosine A1 receptors are coupled to the adenylate cyclase by way of Gi proteins, while the adenosine A2a and A2b receptors are coupled by way of Gs proteins. In correspondence with this, the formation of cAMP in the cell is inhibited or stimulated, respectively. After that, expression of the luciferase is modulated by way of a cAMP-dependent promoter. The luciferase test is optimized, with the aim of high sensitivity and reproducibility, low variance and good suitability for implementation on a robot system, by varying several test parameters, such as cell density, duration of the growth phase and the test incubation, forskolin concentration and medium composition. The following test protocol is used for pharmacologically characterizing cells and for the robot-assisted substance screening:
# (§3) The stock cultures are grown, at 37° C. and under 5% CO2, in DMEM/F12 medium containing 10% FCS (fetal calf serum) and in each case split 1:10 after 2-3 days. Test cultures are seeded in 384-well plates with 2000 cells per well and grown at 37° C. for approx. 48 hours. The medium is then replaced with a physiological sodium chloride solution (130 mM sodium chloride, 5 mM potassium chloride, 2 mM calcium chloride, 20 mM HEPES, 1 mM magnesium chloride hexahydrate, 5 mM sodium bicarbonate, pH 7.4). The substances to be tested, which are dissolved in DMSO, are pipetted into the test cultures (maximum final concentration of DMSO in the test mixture: 0.5%) in a dilution series of from 5×10^−11 M to 3×10^−6 M (final concentration). 10 minutes later, forskolin is added to the A1 cells and all the cultures are subsequently incubated at 37° C. for four hours. After that, 35 μl of a solution which is composed of 50% lysis reagent (30 mM disodium hydrogenphosphate, 10% glycerol, 3% TritonX100, 25 mM TrisHCl, 2 mM dithiotreitol (DTT), pH 7.8) and 50% luciferase substrate solution (2.5 mM ATP, 0.5 mM luciferin, 0.1 mM coenzyme A, 10 mM tricine, 1.35 mM magnesium sulphate, 15 mM DTT, pH 7.8) are added to the test cultures, which are shaken for approx. 1 minute and the luciferase activity is measured using a camera system. The EC50 values are determined, i.e., the concentrations at which 50% of the luciferase response is inhibited in the case of the A1 cell, and, respectively, 50% of the maximum stimulation with the corresponding substance is achieved in the case of the A2b and A2a cells. […] Pharmacol., 357, 1-9 (1998)).
# adenosine A2b receptor = biological target: T2, adenosine A2b receptor (Homo sapiens, UniProt P29275); test: Indirect determination of the adenosine agonism by way of gene expression (luciferase reporter), A2b cells; conditions: CHO cells stably transfected with A2b receptor cDNA; 50% of maximum stimulation of luciferase
# T2 construct: expressed in transfected cells; host or cells: CHO (Chinese Hamster Ovary) permanent line, stably transfected
# T2 sequence (P29275 1-332): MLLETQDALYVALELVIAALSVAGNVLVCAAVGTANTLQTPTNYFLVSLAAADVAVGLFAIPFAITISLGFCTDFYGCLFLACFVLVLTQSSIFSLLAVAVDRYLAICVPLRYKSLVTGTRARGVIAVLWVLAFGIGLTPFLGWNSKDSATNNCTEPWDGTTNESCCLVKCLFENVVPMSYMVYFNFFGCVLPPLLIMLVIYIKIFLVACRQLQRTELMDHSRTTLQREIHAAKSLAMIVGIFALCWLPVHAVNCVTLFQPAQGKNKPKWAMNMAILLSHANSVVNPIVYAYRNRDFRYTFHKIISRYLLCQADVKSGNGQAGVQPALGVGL
# From the text: as §1, §2, §3
# adenosine A1 receptor = biological target: T3, adenosine A1 receptor (Homo sapiens, UniProt P30542); test: Indirect determination of the adenosine agonism by way of gene expression (luciferase reporter), A1 cells; conditions: CHO cells stably transfected with A1 receptor cDNA; 1 μM forskolin; 50% inhibition of luciferase response
# T3 construct: expressed in transfected cells; host or cells: CHO (Chinese Hamster Ovary) permanent line, stably transfected
# T3 sequence (P30542 1-326): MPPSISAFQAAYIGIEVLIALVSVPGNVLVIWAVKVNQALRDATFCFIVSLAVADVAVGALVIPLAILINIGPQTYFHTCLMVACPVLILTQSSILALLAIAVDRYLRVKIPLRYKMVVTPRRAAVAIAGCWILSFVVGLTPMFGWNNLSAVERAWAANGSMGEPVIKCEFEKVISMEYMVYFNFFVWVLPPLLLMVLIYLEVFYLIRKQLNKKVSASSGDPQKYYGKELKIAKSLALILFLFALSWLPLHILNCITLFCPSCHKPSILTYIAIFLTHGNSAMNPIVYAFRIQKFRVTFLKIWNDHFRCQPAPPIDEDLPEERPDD
# From the text: as §1, §2, §3
# T1 sequence (P29274 whole entry): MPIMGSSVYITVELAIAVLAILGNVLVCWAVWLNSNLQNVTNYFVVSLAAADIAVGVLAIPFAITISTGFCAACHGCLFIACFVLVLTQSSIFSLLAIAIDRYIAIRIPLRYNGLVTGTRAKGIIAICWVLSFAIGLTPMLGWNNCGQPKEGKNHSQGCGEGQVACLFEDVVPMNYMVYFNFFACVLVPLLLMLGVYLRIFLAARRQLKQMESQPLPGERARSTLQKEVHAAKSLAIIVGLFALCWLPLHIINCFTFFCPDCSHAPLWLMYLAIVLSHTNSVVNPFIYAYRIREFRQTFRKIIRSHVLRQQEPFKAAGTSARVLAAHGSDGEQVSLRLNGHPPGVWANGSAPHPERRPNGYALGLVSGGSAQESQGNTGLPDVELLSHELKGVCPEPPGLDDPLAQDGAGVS
Structure (SMILES),EC50 (adenosine A2a receptor) [nM],EC50 (adenosine A2b receptor) [nM],EC50 (adenosine A1 receptor) [nM]
"CCCOc1nc(SCc2csc(-c3ccc(Cl)cc3)n2)c(C#N)c(-c2ccccc2)c1C#N [Example 1, 2-({[2-(4-Chlorophenyl)-1,3-thiazol-4-yl]methyl}sulphanyl)-4-phenyl-6-propoxypyridine-3,5-dicarbonitrile]",> 3000,> 3000,1.3
"N#Cc1c(OCCCO)nc(SCc2csc(-c3ccc(Cl)cc3)n2)c(C#N)c1-c1ccccc1 [Example 2, 2-({[2-(4-Chlorophenyl)-1,3-thiazol-4-yl]methyl}sulphanyl)-6-(3-hydroxypropoxy)-4-phenylpyridine-3,5-dicarbonitrile]",> 3000,534,0.7
"N#Cc1c(OCCCO)nc(SCc2csc(-c3ccc(Cl)cc3)n2)c(C#N)c1-c1cncs1 [Example 6, 2-({[2-(4-Chlorophenyl)-1,3-thiazol-4-yl]methyl}sulphanyl)-6-(3-hydroxypropoxy)-4-(1,3-thiazol-5-yl)pyridine-3,5-dicarbonitrile]",> 3000,> 3000,5.7
"COc1nc(SCc2csc(-c3ccc(Cl)cc3)n2)c(C#N)c(-c2ccc(OCCO)cc2)c1C#N [Example 8, 2-({[2-(4-Chlorophenyl)-1,3-thiazol-4-yl]methyl}sulphanyl)-4-[4-(2-hydroxyethoxy)phenyl]-6-methoxypyridine-3,5-dicarbonitrile]",1220,105,0.3
"CCOc1nc(SCc2coc(-c3ccc(Cl)cc3)n2)c(C#N)c(-c2ccc(OCCO)cc2)c1C#N [Example 15, 2-({[2-(4-Chlorophenyl)-1,3-oxazol-4-yl]methyl}sulphanyl)-6-ethoxy-4-[4-(2-hydroxyethoxy)-phenyl]pyridine-3,5-dicarbonitrile]",> 3000,> 3000,4.8
"CNC(=O)c1cc(CSc2nc(OCCO)c(C#N)c(-c3ccccc3)c2C#N)ccn1 [Example 18, 4-({[3,5-Dicyano-6-(2-hydroxyethoxy)-4-phenylpyridin-2-yl]thio}methyl)-N-methylpyridine-2-carboxamide]",1740,> 3000,0.3
"COc1nc(SCc2c[nH]cn2)c(C#N)c(-c2ccc(OCCO)cc2)c1C#N [Example 21, Formic acid 4-[4-(2-hydroxyethoxy)phenyl]-2-[(1H-imidazol-4-ylmethyl)sulphanyl]-6-methoxypyridine-3,5-dicarbonitrile (1:1)]",> 3000,28.6,73.2
"COc1nc(SCc2csc(-c3ccc(Cl)cc3)n2)c(C#N)c(-c2ccc(OC[C@@H](O)CO)cc2)c1C#N [Example 22, 2-({[2-(4-Chlorophenyl)-1,3-thiazol-4-yl]methyl}sulphanyl)-4-(4-{[(2S)-2,3-dihydroxypropyl]-oxy}phenyl)-6-methoxypyridine-3,5-dicarbonitrile]",1260,142,2.1

# Compounds with a lower EC50 (adenosine A2a receptor), results first:
EC50 (adenosine A2a receptor) [nM],EC50 (adenosine A2b receptor) [nM],EC50 (adenosine A1 receptor) [nM],Structure (SMILES)
689,263,0.6,"N#Cc1c(OCCCO)nc(SCc2csc(-c3ccc(Cl)cc3)n2)c(C#N)c1-c1ccc(OCCO)cc1 [Example 3, 2-({[2-(4-Chlorophenyl)-1,3-thiazol-4-yl]methyl}sulphanyl)-4-[4-(2-hydroxyethoxy)phenyl]-6-(3-hydroxypropoxy)pyridine-3,5-dicarbonitrile]"
1110,> 3000,0.8,"COc1cccc(CSc2nc(OC)c(C#N)c(-c3ccc(OCCO)cc3)c2C#N)c1 [Example 11, 4-[4-(2-Hydroxyethoxy)phenyl]-2-methoxy-6-[(3-methoxybenzyl)sulphanyl]pyridine-3,5-dicarbonitrile]"
547,> 3000,1.2,"COc1nc(SCc2cccnc2)c(C#N)c(-c2ccc(OCCO)cc2)c1C#N [Example 12, 4-[4-(2-Hydroxyethoxy)phenyl]-2-methoxy-6-[(pyridin-3-ylmethyl)sulphanyl]pyridine-3,5-dicarbonitrile]"
527,> 3000,0.8,"CCOc1nc(SCc2csc(-c3ccc(Cl)cc3)n2)c(C#N)c(-c2ccc(OCCO)cc2)c1C#N [Example 16, 2-({[2-(4-Chlorophenyl)-1,3-thiazol-4-yl]methyl}sulphanyl)-6-ethoxy-4-[4-(2-hydroxyethoxy)-phenyl]pyridine-3,5-dicarbonitrile]"
685,177,0.5,N#Cc1c(OCCO)nc(SCc2csc(-c3ccc(Cl)cc3)n2)c(C#N)c1-c1ccc(OCCO)cc1 [Example 19]
